The subject of experiment [1] is Corynespora cassiicola. The experiment is described as follows: Control of Corynespora cassiicola (target leaf spot) in vitro: inhibition of fungal growth in nutrient broth (PDB). The experiment is classed as cell-based. Particulars: 24° C., 3-4 days, photometric 620 nm, read-out: control of Corynespora cassiicola (inhibition of growth vs untreated control). The procedure:
Conidia of the fungus from cryogenic storage were directly mixed into nutrient broth (PDB potato dextrose broth). A DMSO solution of the test compounds was placed into a microtiter plate (96-well format) and the nutrient broth containing the fungal spores was added to it. The test plates were incubated at 24° C. and the inhibition of growth (% control of Corynespora cassiicola) was determined photometrically after 3-4 days at 620 nm. The activity of a compound is derived by comparing the inhibition of growth in the treated test solution to the growth in the untreated check. The concentration of the compounds was 6.7, 2.2, 0.74, 0.25, and 0.082 ppm.

The subject of experiment [2] is Corynespora cassiicola. The experiment is described as follows: Control of Corynespora cassiicola (target leaf spot) on soybean plants under field conditions. The experiment is classed as in vivo. To be noted: for Control vs. untreated (%) / Mean severity (percentage of leaf area covered by disease lesions): three foliar applications, soybean, Brazil. The procedure:
Tested fungicides were formulated and applied to soybean plants in a foliar broadcast spray using a handheld horizontal boom sprayer. Three applications were made over the course of the growing season, starting 45 days after crop emergence, with following applications at 14-day intervals. Trials were conducted across five locations in Brazil. Assessments of severity of infection from Corynespora cassiicola were made at weekly intervals, based on the percentage of leaf area covered by disease lesions. The results reflect the median scores for these assessments, excluding those with less than 10% severity in the untreated checks to limit the confounding effect of low disease pressure. Values are expressed as the mean disease severity score and as the percentage control relative to the untreated. The comparison is made between Compound A-1.3 at 35 grams active ingredient per hectare and the commercial compounds trifloxystrobin and picoxystrobin at their label rate of 60 grams active ingredient per hectare.

[3] abbreviates: Trial 1, 60 g/ha, untreated check 24.9.
Setting [4] is: Trial 2, 60 g/ha, untreated check 18.8.

We go through six compounds from patent US20260293902A1, “METHODS OF CONTROLLING OR PREVENTING INFESTATION OF PLANTS BY THE PHYTOPATHOGENIC MICROORGANISM CORYNESPORA CASSIICOLA” (SYNGENTA CROP PROTECTION AG, priority 2023, published 2026).

Take `COC(=O)NCc1cc(-c2ccn(-c3c(F)cc(C(C)C)cc3F)n2)ccc1C` [Compound A-1.1, methyl N-[[5-[1-(2,6-difluoro-4-isopropyl-phenyl)pyrazol-3-yl]-2-methyl-phenyl]methyl]carbamate]: in the experiment with Corynespora cassiicola [1], the inhibition of growth (as a rule, the share of the control response that was lost under treatment) at 2.2 ppm is no less than 50% and the inhibition of growth at 6.7 ppm was no less than 50%.

With `COC(=O)NCc1cc(-c2ccn(-c3c(F)cc(C4CC4)cc3F)n2)ccc1C` [Compound A-1.3, methyl N-[[5-[1-(4-cyclopropyl-2,6-difluoro-phenyl)pyrazol-3-yl]-2-methyl-phenyl]methyl]carbamate], the inhibition of growth at 0.74 ppm in the experiment with Corynespora cassiicola [1] (0.74 ppm) is no less than 50%. In addition, in the experiment on Corynespora cassiicola [1], the inhibition of growth at 2.2 ppm is no less than 50%. The inhibition of growth at 6.7 ppm with Corynespora cassiicola [1] is no less than 70%. For the same compound, the “Control vs. untreated (%)” value was 63.9% in the experiment on Corynespora cassiicola [2] (Trial 1, 35 g/ha) and 68.0% with Corynespora cassiicola [2] (Trial 2, 35 g/ha). Besides, the “Mean severity (percentage of leaf area covered by disease lesions)” value amounted to 9.9 in the experiment on Corynespora cassiicola [2] (Trial 1, 35 g/ha, untreated check 24.9) and 5.3 in the experiment on Corynespora cassiicola [2] (Trial 2, 35 g/ha, untreated check 18.8). For the same compound, the “control of Corynespora cassiicola compared with commercial compounds, in words” value in the experiment with Corynespora cassiicola [2] (field trials 1 and 2, 35 g/ha vs trifloxystrobin and picoxystrobin at 60 g/ha) was “better control of Corynespora cassiicola than both trifloxystrobin and picoxystrobin”.

As for `CO/C=C(/C(=O)OC)c1ccccc1COc1cccc(C(F)(F)F)n1` [Picoxystrobin, picoxystrobin], the “Control vs. untreated (%)” value is reported as 45.9% with Corynespora cassiicola [2] (Trial 1, 60 g/ha) and 20.0% in the experiment on Corynespora cassiicola [2] (Trial 2, 60 g/ha). The “Mean severity (percentage of leaf area covered by disease lesions)” value is on record as 14.8 in the experiment on Corynespora cassiicola [2] (setting [3]) and 14.0 with Corynespora cassiicola [2] (setting [4]).

On to `CO/C=C(/C(=O)OC)c1ccccc1Oc1cc(Oc2ccccc2C#N)ncn1` [azoxystrobin], for which the inhibition of growth at 6.7 ppm in the experiment with Corynespora cassiicola [1] came out at 50%.

`COC(=O)N(OC)c1ccccc1COc1ccn(-c2ccc(Cl)cc2)n1` [pyraclostrobin]: in the experiment with Corynespora cassiicola [1], the inhibition of growth at 6.7 ppm is 50%.

As to `CON=C(C(=O)OC)c1ccccc1CON=C(C)c1cccc(C(F)(F)F)c1` [trifloxystrobin], the inhibition of growth at 6.7 ppm in the experiment with Corynespora cassiicola [1] was determined as 50%. In addition, the “Control vs. untreated (%)” value was 35.3% in the experiment on Corynespora cassiicola [2] (Trial 1, 60 g/ha) and 6.7% with Corynespora cassiicola [2] (Trial 2, 60 g/ha). The “Mean severity (percentage of leaf area covered by disease lesions)” value with Corynespora cassiicola [2] (setting [3]) is listed as 18.1; in the experiment on Corynespora cassiicola [2] (setting [4]), 16.0.
